In brackets after ≈: the same amount, converted by molar mass. Where two headings read alike, the source gives them in different places.
Key:
[1] = Mouse Hepatocyte Stability Assay; assay type: in vitro ADME; settings: mouse hepatocytes, 37° C.; read-out: Hep (mouse) (t½ min)
Description: (§1) (v) Mouse and Human Hepatocyte Stability Assays
(§2) A hepatocyte stability assay is a laboratory-based method used to determine the metabolic stability of a compound in hepatocytes (liver cells). This assay provides valuable information about how quickly a drug is metabolized in the liver and can be used to assess its potential effectiveness and safety in drug discovery.
(§3) In the assay, cither human or mouse hepatocytes are incubated with the test compound at a controlled temperature of 37° C., for different time periods (e.g., 5, 15, 30, 60, and 120 minutes). At each time point during the incubation, samples are taken, the reaction is terminated, and the amount of test compound remaining analyzed using LC-MS/MS to monitor the disappearance of the test compound over time (Gradient). […] See, e.g., Coe et al., Methods in Pharmacology & Toxicology (2008) 151.

[2] = target: T1, human NLRP3 (Homo sapiens, UniProt Q96P20); assay: Human Whole Blood (hWB) NLRP3 Assay; assay type: cell-based; settings: LPS priming, ATP activation, IL-1β levels
T1 construct: Human whole blood is drawn from healthy volunteers after obtaining written informed consent; from tissue
Description: (ii) Human Whole Blood (hWB) NLRP3 Assay
Human whole blood is drawn from healthy volunteers after obtaining written informed consent. Heparin lithium coated tubes are used to collect blood from volunteers. Blood samples are distributed on 96 well plates using 90 μl per well. Priming is performed by adding 5 μl of LPS (026: B6; Sigma L-2654) at a final concentration of 1 μg/ml for 4.5 hours in a humidified incubator with 37° C. 5% CO2. Thirty minutes prior to NLRP3 activation, 5 μl of a 20× compound solution or vehicle (2% dimethylsulfoxide (DMSO)) is added to each well and plates were incubated on a shaker (450 rpm) in a humidified incubator with 37° C., 5% CO2. Activation is then performed by adding 3.3 μl of a 31× ATP solution per well. At the end of the 30 minutes stimulation, the plates are centrifuged (800 g, 10 min, room temperature) and the plasma from each well is frozen at −80° C. IL-1β levels in the supernatant were analyzed using a mesoscale discovery assay (MSD K151TUK) according to the manufacturers’ instructions.

[3] = Human Hepatocyte Stability Assay; assay type: in vitro ADME; settings: human hepatocytes, 37° C.; read-out: Hep (human) (t½ min)
Description: as §1, §2, §3

[4] = Brain Levels (Kp and Kpu,u); assay type: in vivo, CDI mice; settings: for Kp: oral, 20 mpk; for Kp at 24 h: mice dosed at 20 mpk PO, whole brain AUC over 24 h divided by plasma AUC
Description: (iv) Brain Levels (Kp and Kpu,u)—NLRP3
The in vivo total brain to plasma ratio was assessed in CDI mice after oral administration of the compound. Blood was collected at several timepoints up to 24 h, and transferred into plastic micro centrifuge tubes with EDTA-K2 as anticoagulant. Blood samples were centrifuged at 4000 g for 5 minutes at 4° C., to obtain plasma, then immediately frozen and stored at −75±15° C., prior to analysis. Animals were terminally anaesthetized with a rising concentration of CO2 gas at about 1 minute. At selected timepoints, whole brains were removed from the skull, rinsed in cold PBS to remove blood, dried with clean gauze, then frozen in liquid nitrogen and kept at −75±15° C. before analysis. At the time of analysis, brain samples were homogenized with PBS by tissue weight (g) to PBS volume (mL) ratio 1:3.
Plasma and brain drug levels were quantified by LC/MS/MS on an AB Sciex Triple Quad 5500+instrument, after separation on a HALO 160 A ES-C18, 2.7 μm 2.1×50 mm column. Quantitation was performed using a calibration curve prepared in blank plasma or blank brain homogenate. The software WinNonlin (Phoenix™) was used for pharmacokinetic analysis from the concentrations versus time data, including the AUCinf and AUClast. The Kp ratio (total brain concentration over total plasma concentration) was calculated as (AUCtot,br)/(AUCtot,pl).
The unbound brain exposure was assessed as Kpuu, which is the free brain/free plasma concentration ratio (Cu,bt/Cu,pl). The Cu,br/Cu,pl ratios were obtained from in vivo total brain to plasma ratios (Ctot,br/Ctot,pl) by using in vitro determined Fu,br and Fu,pl.
Plasma protein binding and brain homogenate protein binding were measured by equilibrium dialysis in a HTDialysis plate. The dialysis membranes were soaked in ultrapure water for 60 minutes to separate strips, then in 20% ethanol for 20 minutes, finally in dialysis buffer for 20 minutes. The dialysis set up was assembled according to the manufacturer's instruction. Each cell received 150 μL of plasma or brain homogenate spiked with 1 mM of compound, and dialyzed against an equal volume of dialysis buffer (PBS). The dialysis plate was sealed and incubated in an incubator at 37° C. with 5% CO2 at 100 rpm for 6 hours. At the end of incubation, compound concentration was measured in both chambers by LC-MS/MS on a Triple Quad™ 5500 from AB Inc after separation on a XSelect Hss T3.2.5μ (2.1×30 mm) column. Free fraction (Fu) was calculated as (Peak Area Ratio buffer chamber/Peak Area Ratio plasma chamber). Kpuu=(AUCtot,br×Fu,br)/([…])
The Kpu,u was then calculated upon correcting this kp value with mouse plasma protein binding and mouse brain homogenates binding.
A Kpu,u value >0.3 is considered brain penetrant, and a Kpu,u value ≤0.3 is not considered brain penetrant. When the Kpu,u value is not determined, the Kp value may be useful as a metric of potential brain penetrance if the Kp value is >0.3.

[5] = Solubility Protocol in Phosphate Buffered Saline (PBS); assay type: physicochemical; settings: for solubility at 2 h: pH 7.4, aqueous buffer
Description: (vi) Solubility Protocol in Phosphate Buffered Saline (PBS)
The kinetic solubility of test compounds and control compounds was measured in commercial phosphate buffered saline (PBS), pH 7.4 (Wisent, Canada).
Briefly, a stock solution (20 mM DMSO for controls, and 10 mM DMSO for test compounds) was combined with PBS buffer to reach a targeted concentration of 400 μM for controls and 200 μM for test compounds. The spiked-PBS mixtures were then agitated on a VX-2500 multi-tube vortexer (VWR) for 2 hours at room temperature (18° C.). Following agitation, the samples were filtered on a glass fiber filter (1 μm) and the eluates were diluted 400-fold with a mixture of acetonitrile:water (1:1). Solubility determination was then performed against one standard sample prepared in high organic content at the expected top concentration. The lower limit of quantification was arbitrarily set at 1 μM (400-fold dilution of the top concentration) for assay controls, and 0.5 μM for test compounds. On each experimental run, nicardipine and imipramine were assessed as reference compounds for low and high solubility, respectively. All samples were assessed in triplicate and analyzed by LC-MS/MS (using a CTC PAL autosampler, Thermo Accela UPLC, and a Thermo Quantum mass spectrometer) using electrospray ionization against standards prepared in the same matrix

[6] = CDI, mouse, brain (whole brain homogenate) relative to plasma, brain levels, mice
[7] = CDI, mouse, brain (whole brain homogenate) relative to plasma, po, 20 mg/kg, Kp corrected with mouse plasma protein binding and mouse brain homogenates binding, 20 mpk PO, read-out: Kpu,u
[8] = CDI, mouse, brain (whole brain homogenate) relative to plasma, po, 20 mg/kg
[9] = phosphate buffered saline (PBS), 18 °C, kinetic from dmso stock

T1 sequence (Q96P20 whole entry): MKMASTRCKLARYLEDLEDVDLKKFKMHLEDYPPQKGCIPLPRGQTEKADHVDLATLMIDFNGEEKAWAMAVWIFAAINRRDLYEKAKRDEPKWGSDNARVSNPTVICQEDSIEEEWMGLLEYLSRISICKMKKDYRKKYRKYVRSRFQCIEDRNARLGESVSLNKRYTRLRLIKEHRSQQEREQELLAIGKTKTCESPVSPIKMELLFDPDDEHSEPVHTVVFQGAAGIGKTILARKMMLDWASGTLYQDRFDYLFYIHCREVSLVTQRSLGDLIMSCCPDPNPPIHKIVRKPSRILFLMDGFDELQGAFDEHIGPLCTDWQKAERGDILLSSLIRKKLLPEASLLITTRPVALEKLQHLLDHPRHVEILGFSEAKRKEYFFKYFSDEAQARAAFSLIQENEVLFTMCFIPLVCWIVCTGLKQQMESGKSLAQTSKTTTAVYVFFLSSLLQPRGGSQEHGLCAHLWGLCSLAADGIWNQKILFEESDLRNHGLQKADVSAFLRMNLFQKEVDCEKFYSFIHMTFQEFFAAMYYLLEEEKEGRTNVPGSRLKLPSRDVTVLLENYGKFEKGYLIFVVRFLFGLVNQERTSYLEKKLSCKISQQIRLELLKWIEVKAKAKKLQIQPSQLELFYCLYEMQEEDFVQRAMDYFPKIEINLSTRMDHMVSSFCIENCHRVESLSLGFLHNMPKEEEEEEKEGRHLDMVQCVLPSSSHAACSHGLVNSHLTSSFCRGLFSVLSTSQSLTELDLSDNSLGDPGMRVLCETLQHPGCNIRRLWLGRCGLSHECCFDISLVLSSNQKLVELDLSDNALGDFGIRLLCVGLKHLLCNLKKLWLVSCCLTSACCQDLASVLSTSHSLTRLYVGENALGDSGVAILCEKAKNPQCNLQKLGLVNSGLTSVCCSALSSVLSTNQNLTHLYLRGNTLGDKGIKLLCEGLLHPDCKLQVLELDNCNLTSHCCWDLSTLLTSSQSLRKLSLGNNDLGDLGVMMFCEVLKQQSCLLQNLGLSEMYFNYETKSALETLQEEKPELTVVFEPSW

Oc1cc(Cl)ccc1-c1nnc(N[C@H]2C[C@H]3CC[C@@H]2O3)c2cnccc12 (single isomer, unassigned) [Compound 3D*]
half-life [1]: 0.167 h | IC50 [2]: 2.42 µM

Oc1cc(Cl)ccc1-c1nnc(N[C@@H]2C[C@@H]3C[C@H]2CO3)c2cnccc12 (single isomer, unassigned) [Compound 8A]
half-life [1]: 4.17 h | IC50 [2]: 0.27 µM

Oc1cc(Cl)ccc1-c1nnc(N[C@@]23CCC(C2)OC3)c2cnccc12 (single isomer, unassigned) [Compound 9B]
IC50 [2]: > 50 µM

Oc1cc(C(F)(F)F)ccc1-c1nnc(N[C@H]2C[C@@H]3CC[C@H]2O3)c2cnccc12 (single isomer, unassigned) [Compound 10B*]
IC50 [2]: 6.76 µM

Oc1cc(Cl)ccc1-c1nnc(N[C@@H]2C[C@H]3CC[C@@H]2O3)c2cnccc12 (single isomer, unassigned) [Compound 3C*]
half-life [1]: 1.67 h | IC50 [2]: 0.27 µM

6-(1-(((1R,5S,8s)-3-oxabicyclo[3.2.1]octan-8-yl)amino)pyrido[3,4-d]pyridazin-4-yl)-2-fluoro-3-methylphenol [Compound 15A-regioisomer]
IC50 [2]: 1.51 µM

Oc1cc(C(F)(F)F)ccc1-c1nnc(N[C@@H]2C[C@H]3CC[C@@H]2O3)c2cnccc12 (single isomer, unassigned) [Compound 10C*]
half-life [3]: 7.83 h | Kp [4, 6]: 0.48 | Kpu,u [4, 7]: 0.21 | Kp at 24 h [4, 8]: 0.48 | Kpu,u ([4]; brain levels, unbound, mice): 0.21 | half-life [1]: 2.33 h | IC50 [2]: 0.81 µM

Oc1cc(Cl)ccc1-c1nnc(N[C@H]2C[C@@H]3CC[C@H]2O3)c2cnccc12 (single isomer, unassigned) [Compound 3B*]
IC50 [2]: 5 µM

Cc1ccc(-c2nnc(N[C@@H]3C[C@@H]4CC[C@H]3O4)c3cnccc23)c(O)c1 (single isomer, unassigned) [Compound 7A]
half-life [3]: > 8 h | Kp at 24 h [4, 8]: 0.61 | half-life [1]: 0.95 h | IC50 [2]: 0.23 µM

Oc1cc(Cl)ccc1-c1nnc(N[C@H]2C[C@H]3C[C@@H]2CO3)c2cnccc12 (single isomer, unassigned) [Compound 8B]
Kp [4, 6]: 0.35 | Kpu,u [4, 7]: 0.1 | Kp at 24 h [4, 8]: 0.35 | Kpu,u ([4]; brain levels, unbound, mice): — 0.10 | solubility kinetic at 2 h ([5]; phosphate buffered saline (PBS), 18 °C, aqueous buffer, kinetic from dmso stock, kinetic solubility, PBS pH 7.4, 2 hours at room temperature): > 300 µM | solubility at 2 h [5, 9]: > 300 µM | half-life [1]: 4.67 h | IC50 [2]: 0.59 µM

Cc1ccc(-c2nnc(N[C@H]3C[C@@H]4CC[C@H]3O4)c3cnccc23)c(O)c1 (single isomer, unassigned) [Compound 7B]
IC50 [2]: 5.3 µM

Cc1ccc(-c2nnc(N[C@@H]3C[C@H]4CC[C@@H]3O4)c3cnccc23)c(O)c1 (single isomer, unassigned) [Compound 7C]
half-life [3]: 4.67 h | Kp [4, 6]: 0.61 | half-life [1]: 0.35 h | IC50 [2]: 0.11 µM

Oc1cc(Cl)ccc1-c1nnc(N[C@H]2C[C@H]3CC[C@@H](C2)O3)c2cnccc12 [Compound 1A*-r, 2-(4-(((1R,3r,5S)-8-oxabicyclo[3.2.1]octan-3-yl)amino)pyrido[3,4-d]pyridazin-1-yl)-5-chlorophenol]
Kp [4, 6]: 0.047 | Kp at 24 h [4, 8]: 0.047 | Sol (PBS) ([5]; kinetic solubility, PBS pH 7.4, 2 hours at room temperature): 3.5 µM | solubility at 2 h [5, 9]: 3.5 µM (≈ 1.34 µg/mL) | IC50 [2]: 1.39 µM

Oc1cc(C(F)(F)F)ccc1-c1nnc(N[C@H]2C[C@H]3CC[C@@H]2O3)c2cnccc12 (single isomer, unassigned) [Compound 10D*]
half-life [3]: > 8 h | half-life [1]: 8 h | IC50 [2]: 5.34 µM

N#Cc1ccc(-c2nnc(N[C@H]3[C@@H]4CC[C@H]3COC4)c3cnccc23)c(O)c1 [Compound 18A, 4-(4-(((1R,5S,8s)-3-oxabicyclo[3.2.1]octan-8-yl)amino)pyrido[3,4-d]pyridazin-1-yl)-3-hydroxybenzonitrile]
IC50 [2]: 0.32 µM

Cc1ccc(-c2nnc(N[C@H]3C[C@H]4CC[C@@H]3O4)c3cnccc23)c(O)c1 (single isomer, unassigned) [Compound 7D]
IC50 [2]: 4.66 µM

Cc1cc(O)c(-c2nnc(N[C@H]3[C@@H]4CC[C@H]3COC4)c3cnccc23)c(F)c1 [Compound 16A, 2-(4-(((1R,5S,8s)-3-oxabicyclo[3.2.1]octan-8-yl)amino)pyrido[3,4-d]pyridazin-1-yl)-3-fluoro-5-methylphenol]
IC50 [2]: 0.48 µM

Cc1cc(C)c(-c2nnc(N[C@H]3[C@@H]4CC[C@H]3COC4)c3cnccc23)c(O)c1 [Compound 17A, 2-(4-(((1R,5S,8s)-3-oxabicyclo[3.2.1]octan-8-yl)amino)pyrido[3,4-d]pyridazin-1-yl)-3,5-dimethylphenol]
IC50 [2]: 0.31 µM

Cc1ccc(-c2nnc(N[C@@H]3C[C@H]4CC[C@@H](C3)O4)c3cnccc23)c(O)c1 [Compound 2B*-r, 2-(4-(((1R,3s,5S)-8-oxabicyclo[3.2.1]octan-3-yl)amino)pyrido[3,4-d]pyridazin-1-yl)-5-methylphenol]
half-life [1]: 3.67 h | IC50 [2]: 4.12 µM

Oc1cc(Cl)ccc1-c1nnc(N[C@]23CCC(C2)OC3)c2cnccc12 (single isomer, unassigned) [Compound 9A]
IC50 [2]: > 50 µM

Cc1ccc(-c2nnc(N[C@H]3C[C@H]4CC[C@@H](C3)O4)c3cnccc23)c(O)c1F [Compound 12A*-r, 6-(4-(((1R,3r,5S)-8-oxabicyclo[3.2.1]octan-3-yl)amino)pyrido[3,4-d]pyridazin-1-yl)-2-fluoro-3-methylphenol]
half-life [1]: 3.33 h | IC50 [2]: 2 µM
